Data: patent US12391672B2, “Solid forms comprising (S)-4-(4-(4-(((2-(2,6-dioxopiperidin-3-yl)-1-oxoisoindolin-4-yl)oxy)methyl)benzyl)piperazin-1-yl)-3-fluorobenzonitrile and salts thereof, and compositions comprising and methods of using the same” (Celgene Corporation, priority 2019, dated 2025)
Converted amounts (≈) assume the structure as drawn. “And” between values parts separate entries of the source, which are not always exact repeats. Equal values may be shown once. Each block holds one compound with its values, some of them ahead of it.

Key:
Format in all cases: physicochemical
[1] = Solubility of polymorphic forms in physiologically relevant media and final pH
Text: Solubility data of the several polymorphic forms of Compound 1 in physiologically relevant media and the final pH of these solutions are summarized in the following tables.

[2] = Solid state stability under accelerated storage conditions
Protocol: Form A was not isolated directly as a wet cake but formed only upon drying of Form E in polymorphism studies. […] Small quantities of Form A were generated by dissolving a crude Compound 1 in MEK at high temperature, followed by fast cooling to room temperature, filtration and drying. DSC and TGA data were obtained for samples of Form A and following storage for 1 week at 60° C. and 60° C./75% RH. […] TGA analysis confirmed that this broad endotherm was most likely due to moisture uptake under the accelerated storage conditions. Most of the weight loss of 0.82% in this sample occurred in a single step at less than 75° C. By contrast, weigh loss was a two-step process at the initial time point. […] The residual solvent initially present in the sample was lost upon storage of the sample at 60° C. (0.13% weight loss between 25 to 150° C.).
Form B could be obtained from a process involving methyl acetate. […] HPLC traces were taken of the samples of Form B and following storage for 2 week at 60° C. and 60° C./75% RH. […] Several small degradation products were seen to grow especially in the sample stored at 60° C. Chiral instability was also observed in the sample stored at 60° C./75% RH.
Physical stability: Visually, all samples of Form K were white colored powder with no apparent change in color in the samples stored under accelerated conditions (40° C., 40° C./75% RH, 60° C., 60° C./75% RH and sample stored in light chamber in clear vials exposed to light and covered in aluminum foil) for 14 d relative to the sample stored refrigerated and under ambient conditions.
Solid state chemical stability: HPLC analysis were performed on Form K samples stored under the accelerated stability conditions. […] Based on the HPLC analysis data, there is a measurable but small change in the chemical stability of Form K under the accelerated conditions of temperature, humidity and exposure to light over the 14 d period.
Solid state chiral stability: Chiral stability of Form K samples stored under accelerated stability conditions was tested. There was ˜2.9% of the R-enantiomer (97.1 area % of the active S-isomer) in the initial sample. […]
The chiral purity (area % of S-isomer) remained […] under the accelerated stability conditions.

[3] = Competitive slurry and slurry stability experiments; details: water, prolonged stirring
Protocol: Form B was obtained at room temperature while form C was obtained at 45° C. in acetone alone.
The HBr salt was largely insoluble in various buffers when 1 mg/mL slurries were prepared and the mother liquor concentration determined (by HPLC): <0.05 mg/mL in all buffers tested.

[4] = Dynamic vapor sorption / hygroscopicity; details: for hygroscopicity: DVS, class by mass gain at 85% r.h.; for solid form after DVS cycle: after the DVS humidity cycle
Protocol: Projekt Messtechnik (now ProUmid) SPS11-100n. The sample was placed on an aluminum holder on top of a microbalance and allowed to equilibrate at 50% r.h. before starting one of the following pre-defined humidity programs (1 cycle): • hold 2 h at 50% r.h., • decrease humidity −5% r.h. h^−1 for 10 h (i.e., from 50% r.h. to 0% r.h.), • hold 5 h at […]., • increase humidity +5% r.h. h^−1 for 19 h (i.e., from 0% r.h. to 95% r.h.), • hold 5 h at 95% r.h., • decrease humidity −5% r.h. h^−1 for 9 h (i.e., from 95% r.h. to 50% r.h.), • hold 2 h at 50% r.h. or • hold 2 h at 50% r.h., • increase humidity +5% r.h. h^−1 for 9 h (i.e., from 50% r.h. to 95% r.h.), • hold 5 h at 95% r.h., • decrease humidity −5% r.h. h^−1 for 19 h (i.e., from 95% r.h. to 0% r.h.), • hold 5 h at 0% r.h., • increase humidity +5% r.h. h^−1 for 10 h (i.e., from 0% r.h. to 50% r.h.), • hold 2 h at 50% r.h.
The hygroscopicity was classified based on the mass gain at 85% r.h. relative to the initial mass as follows: deliquescent (sufficient water adsorbed to form a liquid), very hygroscopic (mass increase of […]), hygroscopic (mass increase of <15% but ≥2%), slightly hygroscopic (mass increase of <2% but ≥0.2%), or non-hygroscopic (mass increase of <0.2%).

[5] = Critical water activity of hydrochloride Form L and Form N; details: for form after slurry (XRPD): water/acetone
Protocol: Determination of critical water activity for Form L and Form N: 50 mg of Form L was suspended in 0.5-1 ml of water/acetone solution with specific water activity. The solutions were stirred at RT or 60′° C. Form conversion was monitored by XRPD over 2 weeks.

[6] = Storage at controlled relative humidities (Form K / Form K′)
Text: It was noticed that after Form K was dried, the XRPD peaks of Form K shifted to a higher value and the resulting XRPD pattern is called Form K′. To further understand the relationships between the two forms, free base Form K and Form K′ were placed on XRPD sample holders and stored in a closed Jars with saturated salt solutions for RH controls at ambient temperature, respectively. […] The XRPD diffractograms of the samples after 2-day storage are presented in FIG. 132 and FIG. 133, respectively. […] Since the peaks of Form K shifted to higher 2-theta value as Form K loses water molecules to Form K′, Form K and Form K′ are on a continuum.

[7] = Solubility determination (15 minutes at room temperature, HPLC)
Protocol: 1 mL of buffer or of ultrapure (resistivity≥18.2 Mf cm) water was added to a pre-weighed, approximately twenty milligram aliquot of the substance to be measured. The resulting suspensions were stirred for 15 minutes at room temperature with magnetic stirrers. The suspensions were centrifuged and filtered through Millipore 0.2 μm PVDF filters, and the concentration of each filtrate (i.e., saturated solution) was determined using a general HPLC method. The pH of each saturated solution was measured with a Metrohm 713 pH meter.
To assess whether Form K and Form K′ are likely to have different bioavailabilities, comparative solubility measurements were carried out in physiologically relevant media. Samples of Form K and Form K′ were separately equilibrated in pure water, pH 2.0 buffer, and pH 6.8 buffer for fifteen minutes, and the solids were then separated from the solvents. The concentration of the compound in the filtrate (i.e., the solubility) was assessed in each case, and the solid residues were also monitored by powder X-ray diffraction. All six solid residues correspond to Form K, confirming that Form K′ rapidly incorporates water into its lattice when suspended in an aqueous environment even when the solubility is low. While the solubilities in pure water and at pH 6.8 were below the limit of quantitation of 0.0001 mg/mL, the solubilities at pH 2.0 could be measured. […] Thus, the bioavailabilities of the two forms are expected to be similar, and precise control of the water content (and, thereby, the solid form) is presumably not necessary from a scientific point of view. Given that the critical water activity is in the range aH2O=0.11-0.17, the hydrated Form K is likely to be the more easily stabilized of the two forms under ambient laboratory conditions.

[8] = relative humidity from about 5% to about 95%

Compound: N#Cc1ccc(N2CCN(Cc3ccc(COc4cccc5c4CN([C@H]4CCC(=O)NC4=O)C5=O)cc3)CC2)c(F)c1 [Form C of a free base of Compound 1]
Solubility ([1]; FaSSIF): 1 µg/mL (≈ 1.76 µM) | Solubility ([1]; FeSSiF, listed as Form C): 31 µg/mL (≈ 54.6 µM) | Solubility ([1]; SGF with pepsin, listed as Form C): 427 µg/mL (≈ 752 µM) | Solubility ([1]; Water): <LOQ | Solubility ([1]; pH 1 buffer HC1/NaC1, listed as Form C): 108 µg/mL (≈ 190 µM) | Solubility ([1]; pH 3 buffer (phosphate), listed as Form C): 277 µg/mL (≈ 488 µM) | Solubility ([1]; pH 4 buffer (acetate), listed as Form C): 65 µg/mL (≈ 115 µM) | Solubility ([1]; pH 5 buffer (acetate), listed as Form C): 3 µg/mL (≈ 5.29 µM) | Final pH ([1]; solubility sample in FaSSIF, listed as Form C): 6.44 | Final pH ([1]; solubility sample in FeSSiF, listed as Form C): 5.05 | Final pH ([1]; solubility sample in SGF with pepsin, listed as Form C): 1.29 | Final pH ([1]; solubility sample in Water, listed as Form C): 6.86 | Final pH ([1]; solubility sample in pH 1 buffer HC1/NaC1, listed as Form C): 1.07 | Final pH ([1]; solubility sample in pH 3 buffer (phosphate), listed as Form C): 3.31 | Final pH ([1]; solubility sample in pH 4 buffer (acetate), listed as Form C): 4.14 | Final pH ([1]; solubility sample in pH 5 buffer (acetate), listed as Form C): 5.11 | physical and chemical stability ([2]; accelerated stability conditions): physically and chemically stable | competitive slurry of Form C and Form K [3]: gradual conversion of Form C to Form K | hygroscopicity ([4]; listed as Form C): hygroscopic (hygroscopic (mass increase of <15% but ≥2%)) | DVS mass increase ([4]; relative humidity from about 5% to about 95%, listed as Form C): about 8.3%

Compound: Cl.N#Cc1ccc(N2CCN(Cc3ccc(COc4cccc5c4CN([C@H]4CCC(=O)NC4=O)C5=O)cc3)CC2)c(F)c1
hygroscopicity [4]: slightly hygroscopic (slightly hygroscopic (mass increase of <2% but ≥0.2%)) | solid form after DVS cycle [4]: remains as Form L | DVS mass increase ([4]; relative humidity from about 0% to about 95%): about 0.6% | critical water activity (Form L to Form N) ([5]; 60° C.): 0.4-0.5 | critical water activity (Form L to Form N) ([5]; RT): 0.2-0.4 | form after slurry (XRPD) ([5]; Aw 0.1, RT): Form L | form after slurry (XRPD) ([5]; Aw 0.2, 60° C.): Form L | form after slurry (XRPD) ([5]; Aw 0.2, RT): Form L | form after slurry (XRPD) ([5]; Aw 0.3, 60° C.): Form L | form after slurry (XRPD) ([5]; Aw 0.3, RT): Form AA | form after slurry (XRPD) ([5]; Aw 0.4, 60° C.): Form L | form after slurry (XRPD) ([5]; Aw 0.4, RT): Form N | form after slurry (XRPD) ([5]; Aw 0.5, 60° C.): Form N | form after slurry (XRPD) ([5]; Aw 0.5, RT): Form N

Compound: N#Cc1ccc(N2CCN(Cc3ccc(COc4cccc5c4CN([C@H]4CCC(=O)NC4=O)C5=O)cc3)CC2)c(F)c1 [Form K′ of a free base of Compound 1]
form conversion on storage (XRPD) ([6]; 22% RH or above, ambient temperature): converts to K | PXRD result after storage ([6]; stored at 17% r.h. and r.t. for 2.5 d): Form K | solubility at pH 2.0 ([7]; pH 2.0 buffer, fifteen minutes): 0.93 mg/mL | solid residue after solubility measurement (powder X-ray diffraction) ([7]; pure water, pH 2.0 buffer and pH 6.8 buffer, fifteen minutes): Form K

Compound: N#Cc1ccc(N2CCN(Cc3ccc(COc4cccc5c4CN([C@H]4CCC(=O)NC4=O)C5=O)cc3)CC2)c(F)c1 [Form D of a free base of Compound 1]
hygroscopicity ([4]; listed as Form D): slightly hygroscopic (slightly hygroscopic (mass increase of <2% but ≥0.2%)) | solid form after DVS cycle ([4]; listed as Form D): a mixture of Form B and Form E | DVS mass increase ([4]; relative humidity from about 5% to about 95%, listed as Form D): about 3.0%

Compound: N#Cc1ccc(N2CCN(Cc3ccc(COc4cccc5c4CN([C@H]4CCC(=O)NC4=O)C5=O)cc3)CC2)c(F)c1.O=S(=O)(O)c1ccccc1 [Form B of a besylate salt of Compound 1]
physical stability (XRPD) ([2]; 40° C., 40° C./75% RH, 60° C., 60° C./75% RH, and under light for 14 days): physically stable | chiral purity (area % of S-isomer) ([2]; accelerated stability conditions, 14 days): above 99% | Chemical purity (HPLC) on storage ([2]; accelerated stability conditions, 14 days, peak grows with temperature and humidity): showed degradation peak | hygroscopicity [4]: slightly hygroscopic (slightly hygroscopic (mass increase of <2% but ≥0.2%)) | solid form after DVS cycle [4]: remains as Form B | DVS mass increase [4, 8]: about 1.75%

Compound: Cl.N#Cc1ccc(N2CCN(Cc3ccc(COc4cccc5c4CN([C@H]4CCC(=O)NC4=O)C5=O)cc3)CC2)c(F)c1 [HC1 Salt]
Solubility ([1]; FaSSIF): 1 µg/mL | Solubility ([1]; FeSSiF): 94 µg/mL | Solubility ([1]; SGF with pepsin): 295 µg/mL | Solubility ([1]; pH 1 buffer HC1/NaC1): 71 µg/mL | Solubility ([1]; pH 3 buffer (phosphate)): 149 µg/mL | Solubility ([1]; pH 4 buffer (acetate)): 124 µg/mL | Solubility ([1]; pH 5 buffer (acetate)): 17 µg/mL | Final pH ([1]; solubility sample in FaSSIF): 5.96 | Final pH ([1]; solubility sample in FeSSiF): 4.99 | Final pH ([1]; solubility sample in SGF with pepsin): 1.28 | Final pH ([1]; solubility sample in pH 1 buffer HC1/NaC1): 1.05 | Final pH ([1]; solubility sample in pH 3 buffer (phosphate)): 3.05 | Final pH ([1]; solubility sample in pH 4 buffer (acetate)): 4.00 | Final pH ([1]; solubility sample in pH 5 buffer (acetate)): 4.83

aqueous solubility for the free base component ([7]; water, sample changed (solid-form transformation or gel), value may not represent the initial form): 4.1 mg/mL and 7.2 mM | solid form after DVS cycle [4]: remains as Form A | DVS mass increase [4, 8]: about 11.7%
Compound: Cl.N#Cc1ccc(N2CCN(Cc3ccc(COc4cccc5c4CN(C4CCC(=O)NC4=O)C5=O)cc3)CC2)c(F)c1 (centres unmarked)
hygroscopicity [4]: hygroscopic (hygroscopic (mass increase of <15% but ≥2%))
